The target in experiment [1] is T1, Testis-specific serine/threonine-protein kinase 1 (Homo sapiens) (UniProt Q9BXA7).
T1 sequence (whole entry): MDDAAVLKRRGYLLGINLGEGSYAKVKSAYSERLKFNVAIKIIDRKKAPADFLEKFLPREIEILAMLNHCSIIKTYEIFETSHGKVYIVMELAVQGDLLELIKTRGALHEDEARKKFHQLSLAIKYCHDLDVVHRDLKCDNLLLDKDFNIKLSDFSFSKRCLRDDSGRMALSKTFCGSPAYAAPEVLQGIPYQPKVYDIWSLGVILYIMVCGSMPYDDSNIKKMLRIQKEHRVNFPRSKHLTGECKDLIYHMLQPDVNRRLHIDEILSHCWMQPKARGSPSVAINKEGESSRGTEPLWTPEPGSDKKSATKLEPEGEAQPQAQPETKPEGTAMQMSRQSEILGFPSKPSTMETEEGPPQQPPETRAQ
To be noted: 0.1 uM.
Description: Inhibition of human full length TSSK1 expressed in baculovirus assessed as substrate phosphorylation using fluorescence-labelled peptides as substrate at 0.1 uM after 90 mins by microfluidic peptide phosphorylation assay

Experiment [2] addresses Tyrosine-protein kinase ABL1 (Homo sapiens) (UniProt P00519). Kind of experiment: Inhibition of human full-length ABL expressed in baculovirus assessed as substrate phosphorylation using fluorescence-labelled peptides as substrate at 420 uM after 90 mins by microfluidic peptide phosphorylation assay.
Experiment [3] deals with Dual specificity tyrosine-phosphorylation-regulated kinase 1A (Rattus norvegicus) (UniProt Q63470). The experiment is described as follows: Inhibition of rat full length DYRK1a expressed in Escherichia coli cell assessed as substrate phosphorylation using fluorescence-labelled peptides as substrate at 8 uM after 90 mins by microfluidic peptide phosphorylation assay.
Experiment [4] has as its target T2, Mitogen-activated protein kinase 13 (Homo sapiens) (UniProt O15264).
T2 sequence (whole entry): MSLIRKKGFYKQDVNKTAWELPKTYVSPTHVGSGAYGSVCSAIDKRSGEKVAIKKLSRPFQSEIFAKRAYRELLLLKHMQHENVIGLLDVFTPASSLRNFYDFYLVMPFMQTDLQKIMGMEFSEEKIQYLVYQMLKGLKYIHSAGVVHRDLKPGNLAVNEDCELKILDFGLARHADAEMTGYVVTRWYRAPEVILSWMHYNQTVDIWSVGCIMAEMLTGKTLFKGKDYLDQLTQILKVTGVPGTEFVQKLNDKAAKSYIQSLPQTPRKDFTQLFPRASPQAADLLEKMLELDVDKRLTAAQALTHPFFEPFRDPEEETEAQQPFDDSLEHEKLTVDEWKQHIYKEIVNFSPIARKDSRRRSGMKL
The experiment is described as follows: Inhibition of human full length p38 delta expressed in Escherichia coli cell assessed as substrate phosphorylation using fluorescence-labelled peptides as substrate at 1000 uM after 90 mins by microfluidic peptide phosphorylation assay.

Experiment [5] addresses Rho-associated protein kinase 2 (Homo sapiens) (UniProt O75116). The experiment is described as follows: Inhibition of human ROCK2 catalytic domain expressed in baculovirus assessed as substrate phosphorylation using fluorescence-labelled peptides as substrate at 1000 uM after 90 mins by microfluidic peptide phosphorylation assay.
The target in experiment [6] is T3, Serine/threonine-protein kinase BRSK1 (Homo sapiens) (UniProt Q8TDC3).
T3 sequence (whole entry): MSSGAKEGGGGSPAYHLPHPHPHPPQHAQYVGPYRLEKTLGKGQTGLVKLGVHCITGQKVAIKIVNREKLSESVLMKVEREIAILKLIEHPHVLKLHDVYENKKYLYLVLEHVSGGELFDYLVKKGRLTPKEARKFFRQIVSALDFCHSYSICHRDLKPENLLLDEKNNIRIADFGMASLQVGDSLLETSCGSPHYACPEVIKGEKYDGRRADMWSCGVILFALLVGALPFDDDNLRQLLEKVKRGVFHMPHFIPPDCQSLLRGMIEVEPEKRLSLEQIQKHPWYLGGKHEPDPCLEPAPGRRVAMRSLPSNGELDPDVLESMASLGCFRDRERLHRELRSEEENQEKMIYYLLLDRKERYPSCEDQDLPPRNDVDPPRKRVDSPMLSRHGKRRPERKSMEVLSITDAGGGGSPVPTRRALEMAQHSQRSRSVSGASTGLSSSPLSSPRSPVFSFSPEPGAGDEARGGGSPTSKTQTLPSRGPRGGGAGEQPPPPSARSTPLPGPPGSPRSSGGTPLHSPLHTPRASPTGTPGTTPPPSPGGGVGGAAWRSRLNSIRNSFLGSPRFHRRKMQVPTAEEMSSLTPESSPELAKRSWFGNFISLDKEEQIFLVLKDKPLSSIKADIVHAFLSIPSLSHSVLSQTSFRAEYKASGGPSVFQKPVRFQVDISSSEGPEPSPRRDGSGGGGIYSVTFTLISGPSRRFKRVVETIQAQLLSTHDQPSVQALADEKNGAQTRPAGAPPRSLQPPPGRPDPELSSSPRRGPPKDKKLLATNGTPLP
To be noted: 1000 uM.
Description: Inhibition of human full length BRSK1 expressed in baculovirus assessed as substrate phosphorylation using fluorescence-labelled peptides as substrate at 1000 uM after 90 mins by microfluidic peptide phosphorylation assay

The target of experiment [7] is T4, Aurora kinase A (Homo sapiens) (UniProt O14965).
T4 sequence (whole entry): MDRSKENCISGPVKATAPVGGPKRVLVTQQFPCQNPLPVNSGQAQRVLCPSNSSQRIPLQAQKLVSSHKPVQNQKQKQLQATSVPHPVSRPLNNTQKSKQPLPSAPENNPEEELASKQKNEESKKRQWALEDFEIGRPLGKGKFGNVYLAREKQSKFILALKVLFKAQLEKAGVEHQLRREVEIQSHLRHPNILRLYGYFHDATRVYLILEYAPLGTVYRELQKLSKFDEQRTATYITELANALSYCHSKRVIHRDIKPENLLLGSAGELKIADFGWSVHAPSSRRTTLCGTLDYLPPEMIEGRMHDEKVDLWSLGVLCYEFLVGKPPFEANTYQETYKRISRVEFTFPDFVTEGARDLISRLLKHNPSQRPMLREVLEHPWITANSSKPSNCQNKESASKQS
The experiment is described as follows: Inhibition of human full length AurA expressed in baculovirus assessed as substrate phosphorylation using fluorescence-labelled peptides as substrate at 0.06 uM after 90 mins by microfluidic peptide phosphorylation assay.

This is an account of results in ChEMBL document CHEMBL3132769, “Fragment growing to retain or alter the selectivity of anchored kinase hinge-binding fragments” (Medchemcomm, 2014).

Sequence of Tyrosine-protein kinase ABL1 (Homo sapiens) (P00519 whole entry): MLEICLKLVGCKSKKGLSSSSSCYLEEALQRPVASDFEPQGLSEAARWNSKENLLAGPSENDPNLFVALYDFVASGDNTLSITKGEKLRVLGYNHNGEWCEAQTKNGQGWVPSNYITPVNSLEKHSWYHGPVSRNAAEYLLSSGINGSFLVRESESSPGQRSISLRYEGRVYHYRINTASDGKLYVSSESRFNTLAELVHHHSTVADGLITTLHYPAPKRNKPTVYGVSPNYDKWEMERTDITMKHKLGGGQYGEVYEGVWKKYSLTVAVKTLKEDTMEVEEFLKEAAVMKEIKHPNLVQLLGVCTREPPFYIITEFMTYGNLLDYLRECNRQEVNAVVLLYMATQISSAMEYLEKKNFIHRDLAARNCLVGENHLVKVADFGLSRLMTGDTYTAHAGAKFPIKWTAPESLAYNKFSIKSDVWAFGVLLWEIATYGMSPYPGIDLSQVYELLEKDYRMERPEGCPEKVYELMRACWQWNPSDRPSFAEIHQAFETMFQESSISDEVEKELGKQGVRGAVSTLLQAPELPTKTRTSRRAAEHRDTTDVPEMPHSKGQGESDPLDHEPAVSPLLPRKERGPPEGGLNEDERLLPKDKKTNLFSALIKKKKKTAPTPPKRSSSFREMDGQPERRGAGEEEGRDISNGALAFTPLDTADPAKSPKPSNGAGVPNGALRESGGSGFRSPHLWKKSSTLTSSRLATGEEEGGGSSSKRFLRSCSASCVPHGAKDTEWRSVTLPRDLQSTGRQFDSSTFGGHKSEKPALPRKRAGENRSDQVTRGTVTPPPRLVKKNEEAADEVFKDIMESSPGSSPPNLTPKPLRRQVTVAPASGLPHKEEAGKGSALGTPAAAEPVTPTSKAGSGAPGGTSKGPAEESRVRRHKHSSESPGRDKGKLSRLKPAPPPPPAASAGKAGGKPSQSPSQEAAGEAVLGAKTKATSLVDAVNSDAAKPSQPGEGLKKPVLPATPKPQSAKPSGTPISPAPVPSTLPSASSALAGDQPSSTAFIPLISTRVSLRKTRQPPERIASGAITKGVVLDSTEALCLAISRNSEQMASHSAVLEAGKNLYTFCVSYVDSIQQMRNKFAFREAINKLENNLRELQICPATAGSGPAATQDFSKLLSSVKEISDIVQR
Sequence of Rho-associated protein kinase 2 (Homo sapiens) (O75116 whole entry, looked up, the tested form may be a part): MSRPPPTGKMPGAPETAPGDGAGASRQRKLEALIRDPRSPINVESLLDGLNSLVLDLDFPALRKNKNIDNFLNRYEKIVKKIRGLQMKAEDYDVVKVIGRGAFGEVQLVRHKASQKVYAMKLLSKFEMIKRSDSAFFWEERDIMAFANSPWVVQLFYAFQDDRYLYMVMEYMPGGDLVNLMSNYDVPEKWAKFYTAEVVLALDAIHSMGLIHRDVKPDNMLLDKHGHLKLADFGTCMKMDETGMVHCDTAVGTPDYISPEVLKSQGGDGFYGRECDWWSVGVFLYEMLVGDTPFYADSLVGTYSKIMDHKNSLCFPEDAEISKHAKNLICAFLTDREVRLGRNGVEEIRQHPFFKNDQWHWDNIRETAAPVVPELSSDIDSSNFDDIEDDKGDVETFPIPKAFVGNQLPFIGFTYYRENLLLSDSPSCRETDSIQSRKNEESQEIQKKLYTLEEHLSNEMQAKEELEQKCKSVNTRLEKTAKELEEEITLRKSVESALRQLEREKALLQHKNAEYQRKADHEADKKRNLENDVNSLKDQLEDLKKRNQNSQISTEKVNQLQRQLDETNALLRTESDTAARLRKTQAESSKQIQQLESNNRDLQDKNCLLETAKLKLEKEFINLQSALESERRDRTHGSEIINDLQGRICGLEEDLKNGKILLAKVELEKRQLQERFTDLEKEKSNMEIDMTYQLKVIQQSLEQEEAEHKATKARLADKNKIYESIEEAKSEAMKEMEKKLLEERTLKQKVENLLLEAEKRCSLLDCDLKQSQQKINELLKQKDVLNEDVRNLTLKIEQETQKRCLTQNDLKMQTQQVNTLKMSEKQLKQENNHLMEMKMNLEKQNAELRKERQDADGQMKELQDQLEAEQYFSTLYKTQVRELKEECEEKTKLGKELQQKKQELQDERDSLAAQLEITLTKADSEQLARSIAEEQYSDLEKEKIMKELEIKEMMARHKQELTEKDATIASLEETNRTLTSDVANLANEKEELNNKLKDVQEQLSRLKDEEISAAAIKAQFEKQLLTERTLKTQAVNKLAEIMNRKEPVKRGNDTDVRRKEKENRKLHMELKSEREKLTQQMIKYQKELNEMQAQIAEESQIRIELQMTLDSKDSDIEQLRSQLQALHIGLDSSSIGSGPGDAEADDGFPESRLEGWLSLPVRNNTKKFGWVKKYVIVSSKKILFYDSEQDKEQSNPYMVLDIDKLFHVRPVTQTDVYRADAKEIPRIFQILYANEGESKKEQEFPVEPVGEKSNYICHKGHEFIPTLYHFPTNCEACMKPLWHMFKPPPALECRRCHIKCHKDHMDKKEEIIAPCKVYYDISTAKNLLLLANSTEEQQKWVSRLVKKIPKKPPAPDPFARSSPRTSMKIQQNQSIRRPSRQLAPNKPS

In experiment [1], `C[C@H](CN(C)C)Oc1nc(Nc2cc3cccc(Cl)c3cn2)cnc1C#N` registered an inhibition of 0%. On to `c1nc(N2CCOCC2)c2nc[nH]c2n1`, for which, in experiment [2], the inhibition came out at 69%.

Take `NCC1CCN(c2ncnc3[nH]ccc23)CC1`: the inhibition in experiment [3] was found to be 54%.

As for `c1cnc2[nH]ccc2c1`, the inhibition in experiment [4] was found to be 51%; in experiment [5], 99.5%; in experiment [6], 22%. `NC1(Cc2ccc(Cl)cc2)CCN(c2ncnc3[nH]ccc23)CC1`: the inhibition in experiment [7] stood at 7.5%.
